This note sets out measurements from US10472333B2, “P2X4 receptor antagonist” (NIPPON CHEMIPHAR CO., LTD., priority 2013, dated 2019).

One assay has as its target T1, Mouse P2X4 (Mus musculus, UniProt Q9JJX6).
T1 construct: host or cells: cells expressing the receptor
T1 sequence (Q9JJX6 1-388): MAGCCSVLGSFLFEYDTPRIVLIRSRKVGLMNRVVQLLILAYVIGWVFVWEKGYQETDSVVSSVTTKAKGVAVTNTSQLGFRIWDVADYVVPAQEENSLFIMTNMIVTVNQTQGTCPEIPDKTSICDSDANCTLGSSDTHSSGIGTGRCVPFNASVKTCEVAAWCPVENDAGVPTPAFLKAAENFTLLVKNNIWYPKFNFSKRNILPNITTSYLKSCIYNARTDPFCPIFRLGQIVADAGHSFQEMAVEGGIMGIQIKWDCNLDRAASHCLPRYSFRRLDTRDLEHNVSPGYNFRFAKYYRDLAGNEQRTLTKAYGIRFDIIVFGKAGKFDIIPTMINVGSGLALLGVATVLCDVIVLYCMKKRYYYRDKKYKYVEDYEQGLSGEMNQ
In words: P2X receptor family selectivity, calcium imaging method using cells expressing the receptor. The class given is cell-based. An excerpt: (§1) The inhibitory activities of the compound against the rat and mouse P2X4 receptors were also confirmed.

Another assay has as its target T2, Rat P2X4 (Rattus norvegicus, UniProt P51577).
T2 construct: host or cells: cells expressing the receptor
T2 sequence (P51577 1-388): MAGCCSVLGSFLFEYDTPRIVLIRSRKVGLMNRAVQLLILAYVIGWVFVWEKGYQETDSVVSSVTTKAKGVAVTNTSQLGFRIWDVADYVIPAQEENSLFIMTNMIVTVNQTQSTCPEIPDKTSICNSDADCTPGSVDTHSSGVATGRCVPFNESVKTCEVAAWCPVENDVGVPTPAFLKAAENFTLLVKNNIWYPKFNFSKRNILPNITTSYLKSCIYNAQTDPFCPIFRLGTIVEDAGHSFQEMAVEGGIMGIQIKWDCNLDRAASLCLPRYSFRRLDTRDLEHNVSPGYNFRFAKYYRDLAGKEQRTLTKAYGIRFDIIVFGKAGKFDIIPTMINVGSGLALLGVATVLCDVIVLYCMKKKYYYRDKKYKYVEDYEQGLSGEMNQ
The assay is described as above. The class given is cell-based.
Excerpt: as §1

A further assay deals with T3, Human P2X7 (Homo sapiens, UniProt Q99572).
T3 construct: host or cells: cells expressing the receptor
T3 sequence (Q99572 1-595): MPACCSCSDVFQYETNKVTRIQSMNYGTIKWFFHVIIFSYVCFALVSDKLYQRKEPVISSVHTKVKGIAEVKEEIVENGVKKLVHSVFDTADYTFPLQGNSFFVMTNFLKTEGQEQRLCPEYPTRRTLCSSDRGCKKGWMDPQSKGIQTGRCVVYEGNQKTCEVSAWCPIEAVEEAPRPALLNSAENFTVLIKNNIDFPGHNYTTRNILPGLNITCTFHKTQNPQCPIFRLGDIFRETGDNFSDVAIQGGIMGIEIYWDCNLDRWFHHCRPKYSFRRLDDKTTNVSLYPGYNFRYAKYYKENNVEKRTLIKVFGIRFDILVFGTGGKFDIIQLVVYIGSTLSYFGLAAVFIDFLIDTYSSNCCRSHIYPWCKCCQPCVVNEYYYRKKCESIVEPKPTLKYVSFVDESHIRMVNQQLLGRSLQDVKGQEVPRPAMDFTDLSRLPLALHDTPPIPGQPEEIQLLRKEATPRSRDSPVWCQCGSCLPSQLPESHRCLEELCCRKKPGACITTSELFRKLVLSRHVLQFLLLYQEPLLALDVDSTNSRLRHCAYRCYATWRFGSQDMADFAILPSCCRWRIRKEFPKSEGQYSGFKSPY
The description is as above. The class given is cell-based.

Another assay has as its target T4, Rat P2X3 (Rattus norvegicus, UniProt P49654).
T4 construct: host or cells: cells expressing the receptor
T4 sequence (P49654 1-397): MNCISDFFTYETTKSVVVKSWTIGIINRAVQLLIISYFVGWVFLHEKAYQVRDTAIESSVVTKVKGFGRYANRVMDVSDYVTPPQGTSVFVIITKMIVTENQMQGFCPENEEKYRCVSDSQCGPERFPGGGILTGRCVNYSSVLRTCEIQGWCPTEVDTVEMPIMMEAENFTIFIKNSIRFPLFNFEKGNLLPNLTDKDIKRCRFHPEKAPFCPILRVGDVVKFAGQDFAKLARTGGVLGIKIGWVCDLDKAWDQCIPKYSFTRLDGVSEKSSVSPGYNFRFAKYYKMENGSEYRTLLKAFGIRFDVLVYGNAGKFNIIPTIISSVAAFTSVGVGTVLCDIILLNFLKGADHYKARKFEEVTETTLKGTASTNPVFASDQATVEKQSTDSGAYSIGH
The description is as above. The assay is classed as cell-based.

For another assay, the target named is T5, Rat P2X7 (Rattus norvegicus, UniProt Q64663).
T5 construct: host or cells: cells expressing the receptor
T5 sequence (Q64663 1-595): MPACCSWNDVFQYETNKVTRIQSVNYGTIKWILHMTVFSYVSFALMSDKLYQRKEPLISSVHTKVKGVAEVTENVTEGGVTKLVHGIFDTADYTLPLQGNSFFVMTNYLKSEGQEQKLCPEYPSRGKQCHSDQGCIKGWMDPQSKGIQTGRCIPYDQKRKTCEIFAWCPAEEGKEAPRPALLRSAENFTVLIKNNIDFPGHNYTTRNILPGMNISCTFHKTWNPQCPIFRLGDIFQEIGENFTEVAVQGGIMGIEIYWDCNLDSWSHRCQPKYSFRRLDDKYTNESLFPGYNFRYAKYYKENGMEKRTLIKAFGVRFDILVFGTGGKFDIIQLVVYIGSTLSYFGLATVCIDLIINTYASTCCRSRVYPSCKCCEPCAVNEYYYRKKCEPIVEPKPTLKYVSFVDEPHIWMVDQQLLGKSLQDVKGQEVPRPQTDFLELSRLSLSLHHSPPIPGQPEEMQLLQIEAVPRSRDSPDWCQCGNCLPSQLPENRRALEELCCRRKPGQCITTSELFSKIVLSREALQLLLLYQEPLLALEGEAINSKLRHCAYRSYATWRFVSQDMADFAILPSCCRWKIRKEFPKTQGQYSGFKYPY
The description is as above. The class given is cell-based.

Assay [1] deals with rat neuropathic pain model (modified Chung model). Description: Analgesic activity, rat neuropathic pain model (modified Chung model), von Frey filament test. The assay is classed as in vivo. The method, then:
The analgesic activity of the compound of the present invention was measured by the following method.
Rat neuropathic pain model (modified Chung model) was prepared according to the method of Kim, S. H., Chung, J. M. et al. (An experimental model for peripheral neuropathy produced by segmental spinal nerve ligation in the rat, Pain, 50, 355-363 (1992)). More specifically; under isoflurane anesthesia, back hair of rats was extensively shaved, the shaved parts were wiped with rubbing alcohol, the rats were fixed in the prone position on a heating pad, and the skins were cut and opened along the dorsal median line on the upper and lower sides of the sacroiliac bone. The left lateral paravertebral muscle was separated in the sacral region, and then the ligament was separated. […]
The pain threshold (paw withdrawal threshold (g)) was measured by stimulating the soles of rats with each of seven von Frey filaments (Stoelting Co., TOUCH-TEST SENSORY EVALUATOR) that gave different stimulation strengths, and determining presence or absence of withdrawal response. The 50% threshold was calculated according to the up down method with reference to the method of Chaplan et al. (Chaplan S R, Bach F W, Pogrel J W, Chung J M, Yaksh T L: Quantitative assessment of tactile allodynia in the rat paw, J. Neurosci. Method, 53:55-63 (1994)). […]

The target in a further assay is T6, human P2X4 receptor (Homo sapiens, UniProt Q99571).
T6 sequence (Q99571 1-388): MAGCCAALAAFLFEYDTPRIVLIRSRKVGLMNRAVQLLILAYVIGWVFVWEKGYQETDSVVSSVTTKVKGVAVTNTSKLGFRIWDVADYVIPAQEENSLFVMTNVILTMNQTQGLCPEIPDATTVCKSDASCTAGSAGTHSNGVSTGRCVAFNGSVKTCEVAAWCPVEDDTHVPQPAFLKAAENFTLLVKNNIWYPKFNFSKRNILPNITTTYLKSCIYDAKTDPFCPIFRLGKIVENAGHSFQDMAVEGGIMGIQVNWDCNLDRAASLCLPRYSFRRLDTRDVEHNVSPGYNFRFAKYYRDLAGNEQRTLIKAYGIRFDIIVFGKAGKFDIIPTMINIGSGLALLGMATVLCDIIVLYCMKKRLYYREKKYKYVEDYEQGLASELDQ
Description: P2X4 receptor antagonist activity, ATP-induced intracellular calcium (Fura-2 AM) in 1321N1 cells stably expressing human P2X4 receptor. The conditions noted are these: among human, mouse, and rat. The assay is classed as cell-based.

For `CN(C)c1ncccc1C(=O)Nc1ccc(C2=NCC(=O)Nc3c2ccc2ccccc32)cc1.Cl.Cl` [Example 15, 2-(Dimethylamino)-N-[4-(2-oxo-2,3-dihydro-1H-naphtho[1,2-e][1,4]diazepin-5-yl)phenyl]nicotinamide dihydrochloride], the IC50 at Mouse P2X4 was 0.52 µM; at Rat P2X4, 1.3 µM; on Human P2X7, over 30 µM; on Rat P2X3 it was 6.8 µM; on Rat P2X7, over 30 µM. Further, the “pain threshold of the affected limb (von Frey filament test)” value in assay [1] (rat modified Chung model, 30 mg/kg orally twice a day (60 mg/kg/day) for 14 days from day 9 after operation, measured 3 hours after administration, vs. vehicle group) is listed as “increased”. Besides, the analgesic activity entry in assay [1] (rat neuropathic pain model (modified Chung model)) is on record as “superior analgesic activity”. For the same compound, the “Species-specific difference of the P2X4 receptor inhibitory activity” value at human P2X4 receptor is “not observed”.
